What all share (type): cell-based
Assay [1] relates to Ustilago avenae. The experiment in a line: Ustilago avenae test (in vitro)/microtest. The note with it: single active compound, 4 days incubation, optical density. On the procedure:
Ustilago avenae—Test (In Vitro)/Microtest
(§1) The microtest was performed in liquid medium with potato-dextrose broth (PDB) using microtitre plates.
(§2) The active compound is applied as the technical active substance dissolved in methanol.
A spore suspension of Ustilago avenae was used for inoculation. After 4 days of incubation by darkness under shaking (10 Hrz), the optical density in each cavity was evaluated with the aid of a microtitre plate reader.
(§3) 0% means an efficacy which corresponds to that of the control, while an efficacy of 100% means that no fungal growth is observed.

Assay [2] deals with Pyricularia oryzae. To be noted: single active compound, 0.3 ppm, 4 days incubation, optical density.
For assay [3], the system named is Phytophthora cryptogea. Description: Phytophthora cryptogea test (in vitro)/microtest. The note with it: single active compound, 0.3 ppm, 3 days incubation, optical density. On the procedure: Phytophthora cryptogea—Test (In Vitro)/Microtest
as §1, §2
A mycelium suspension of Phytophthora ayptogea was used for inoculation. After 3 days of incubation by darkness under shaking (10 Hrz), the optical density in each cavity was evaluated with the aid of a microtitre plate reader.
as §3

SMILES strings stand for the structures.

`Cc1nn(C)c(F)c1C(=O)Nc1ccccc1C(C)CC(C)C` (centres unmarked) [BYF 14182] yielded an Efficacy in % in assay [1] (Example B, 0.01 ppm) of 95%.
Turning to `CC(C)(C)C(O)(CCc1ccc(Cl)cc1)Cn1cncn1` (centres unmarked) [Tebuconazole, tebuconazole], in assay [1] (Example D, 0.1 ppm), the Efficacy in % was determined as 96%.
Consider `COc1ccc(-c2coc3cc(O)ccc3c2=O)cc1` [Formononetin], for which the Efficacy in % in assay [2] came to 11%; in assay [3], 14%; in assay [1] (Example B, 0.01 ppm) it was 13%; in assay [1] (Example D, 0.1 ppm), 17%.
`COCC(=O)N(c1c(C)cccc1C)C(C)C(=O)OC` (centres unmarked) [Metalaxyl, metalaxyl] yielded an Efficacy in % in assay [3] of 48%.
As for `CO/N=C(/C(=O)OC)c1ccccc1CO/N=C(\C)c1cccc(C(F)(F)F)c1` [Trifloxystrobin, trifloxystrobin], the Efficacy in % in assay [2] was 56%.
